Measured values taken from patent publication US10723741B1, “DNA polymerase IIIC inhibitors and use thereof” (Acurx Pharmaceuticals, LLC, priority 2018, dated 2020).
≈ marks a conversion by molar mass, not a printed value. Read-outs that look alike come from different tables or passages of the source.

Columns and labels:
Type in all cases: cell-based
[1] = system: Bacillus subtilis ATCC 6633; assay: Broth microdilution MIC, B. subtilis ATCC 6633; details: ATCC6633, broth microdilution, 37° C., 20 hours, read-out: MIC B. subtilis ATCC 6633
How it was run: (§1)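 Two-fold dilutions from 64 to 0.0625 μg/ml final, 1% DMSO, were inoculated at ~5.0×10^5 cfu/ml in the strain's test medium and kept 20 h at 37 °C in ambient atmosphere. Colonies were grown on MHA, with S. pneumoniae on blood agar under 5% CO2.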

[2] = system: Streptococcus pneumoniae ATCC 49619; assay: Broth microdilution MIC, S. pneumoniae ATCC 49619; details: ATCC49619, broth microdilution, 37° C., 20 hours, read-out: MIC S. pneumoniae ATCC 49619
How it was run: as §1

[3] = system: Enterococcus faecalis ATCC 29212; assay: Broth microdilution MIC, E. faecalis ATCC 29212; details: ATCC29212, broth microdilution, 37° C., 20 hours, read-out: MIC E. faecalis ATCC 29212
How it was run: as §1

[4] = system: Staphylococcus aureus ATCC 29213 (MSSA); assay: Broth microdilution MIC, S. aureus ATCC 29213 (MSSA); details: broth microdilution, 37° C., 20 hours, read-out: MIC S. aureus ATCC 29213 (MSSA)
How it was run: as §1

[5] = system: Enterococcus faecium ATCC 700221 (VRE); assay: Broth microdilution MIC, E. faecium ATCC 700221 (VRE); details: Enterococcus faecium, broth microdilution, 37° C., 20 hours
How it was run: as §1

[6] = system: Escherichia coli ATCC 25922; assay: Broth microdilution MIC, E. coli ATCC 25922 (MHIIB w & w/o 4 mM EDTA); details: broth microdilution, 37° C., 20 hours; for MIC: Escherichia coli, ATCC25922, without EDTA, read-out: MIC E. coli ATCC 25922; for MIC E. coli ATCC 25922 + 4 mM EDTA: with 4 mM EDTA
How it was run: as §1

[7] = system: Staphylococcus aureus NRS384 (MRSA); assay: Broth microdilution MIC, S. aureus NRS384 (MRSA); details: Staphylococcus aureus, broth microdilution, 37° C., 20 hours
How it was run: as §1

[8] = read-out: MIC E. faecium ATCC 700221 (VRE)
[9] = MHIIB, read-out: MIC against E. faecium ATCC 700221 (VRE)
[10] = MHIIB, read-out: MIC against S. aureus NRS 384 (MRSA)

SMILES	MIC [1] [µg/mL]	MIC [2] [µg/mL]	MIC [3] [µg/mL]	MIC [4] [µg/mL]	MIC [5, 8] [µg/mL]	MIC [5, 9] [µg/mL]	MIC [6] [µg/mL]	MIC E. coli ATCC 25922 + 4 mM EDTA [6] [µg/mL]	MIC ([7]; read-out: MIC NRS 384 (MRSA)) [µg/mL]	MIC [7, 10] [µg/mL]
Cn1ncc2nc(NCc3ccc(Cl)c(Cl)c3)[nH]c(=O)c21 [Compound 2, 5-((3,4-Dichlorobenzyl)amino)-1-methyl-1H-pyrazolo[4,3-d]pyrimidin-7(6H)-one]	1 (≈ 3.08 µM)	4 (≈ 12.3 µM)	2 (≈ 6.17 µM)	2 (≈ 6.17 µM)	1 (≈ 3.08 µM)	≤ 1	> 64	>64	1 (≈ 3.08 µM)	≤ 1
Cc1nn(C)c2c(=O)[nH]c(NCc3ccc(Cl)c(Cl)c3)nc12 [Compound 44, 5-((3,4-dichlorobenzyl)amino)-1,3-dimethyl-1H-pyrazolo[4,3-d]pyrimidin-7(6H)-one]	2 (≈ 5.91 µM)	4 (≈ 11.8 µM)	4 (≈ 11.8 µM)	2 (≈ 5.91 µM)	4 (≈ 11.8 µM)	≤ 1	> 64	>64	2 (≈ 5.91 µM)	≤ 1
C=CCn1ncc2nc(NCc3ccc(Cl)c(Cl)c3)[nH]c(=O)c21 [Compound 56, 1-allyl-5-((3,4-dichlorobenzyl)amino)-1H-pyrazolo[4,3-d]pyrimidin-7(6H)-one]	0.25 (≈ 0.714 µM)	2 (≈ 5.71 µM)	2 (≈ 5.71 µM)	1 (≈ 2.86 µM)	0.5 (≈ 1.43 µM)	≤ 1	> 64	>64	0.5 (≈ 1.43 µM)	≤ 1
O=c1[nH]c(NCc2ccc(Cl)c(Cl)c2)nc2cn[nH]c12 [Compound 77, 5-((3,4-dichlorobenzyl)amino)-1H-pyrazolo[4,3-d]pyrimidin-7(6H)-one]	4 (≈ 12.9 µM)	4 (≈ 12.9 µM)	8 (≈ 25.8 µM)	8 (≈ 25.8 µM)	4 (≈ 12.9 µM)		> 64	>64	8 (≈ 25.8 µM)	
COCCn1ncc2nc(NCc3ccc(Cl)c(Cl)c3)[nH]c(=O)c21 [Compound 126, 5-((3,4-dichlorobenzyl)amino)-1-(2-methoxyethyl)-1H-pyrazolo[4,3-d]pyrimidin-7(6H)-one]	1 (≈ 2.72 µM)	2 (≈ 5.43 µM)	4 (≈ 10.9 µM)	2 (≈ 5.43 µM)	2 (≈ 5.43 µM)		> 64	>64	2 (≈ 5.43 µM)	
Cl.O=c1[nH]c(NCc2ccc(Cl)c(Cl)c2)nc2cnn(CC3CNCCO3)c12 (centres unmarked) [Compound 149, 5-((3,4-dichlorobenzyl)amino)-1-(morpholin-2-ylmethyl)-1H-pyrazolo[4,3-d]pyrimidin-7(6H)-one hydrochloride]	2	4	16	16	8		> 64	64	32	
Cl.Cl.O=c1[nH]c(NCc2ccc(Cl)c(Cl)c2)nc2cnn(CCOCCN3CCNCC3)c12 [Compound 167, 5-[(3,4-dichlorophenyl)methylamino]-1-[2-(2-piperazin-1-ylethoxy)ethyl]-6H-pyrazolo[4,3-d]pyrimidin-7-one]	16	16	64		64		> 64	>64	> 64	
CN(C)CCOCCn1ncc2nc(NCc3ccc(Cl)c(Cl)c3)[nH]c(=O)c21.Cl [Compound 211, 5-((3,4-dichlorobenzyl)amino)-1-(2-(2-(dimethylamino)ethoxy)ethyl)-1H-pyrazolo[4,3-d]pyrimidin-7(6H)-one hydrochloride]	2	4	16	32	8		> 64	>64	32	
O=c1[nH]c(NCc2ccc(Cl)c(Cl)c2)nc2cnn(-c3ccccc3)c12 [Compound 212, 5-[(3,4-dichlorophenyl)methylamino]-1-phenyl-6H-pyrazolo[4,3-d]pyrimidin-7-one]	1 (≈ 2.59 µM)	8 (≈ 20.7 µM)	> 64	1 (≈ 2.59 µM)	1 (≈ 2.59 µM)	≤ 1	> 64	>64	1 (≈ 2.59 µM)	≤ 1
O=c1[nH]c(NCc2ccc(Cl)c(Cl)c2)nc2cnn(C3CC3)c12 [Compound 213, 1-Cyclopropyl-5-((3,4-dichlorobenzyl)amino)-1H-pyrazolo[4,3-d]pyrimidin-7(6H)-one]	0.5 (≈ 1.43 µM)	4 (≈ 11.4 µM)	2 (≈ 5.71 µM)	1 (≈ 2.86 µM)	1 (≈ 2.86 µM)	≤ 1	> 64	>64	1 (≈ 2.86 µM)	≤ 1
O=c1[nH]c(NCc2ccc(Cl)c(Cl)c2)nc2cnn(C3CCCC3)c12 [Compound 214, 1-cyclopentyl-5-((3,4-dichlorobenzyl)amino)-1H-pyrazolo[4,3-d]pyrimidin-7(6H)-one]	0.5 (≈ 1.32 µM)	8 (≈ 21.1 µM)	2 (≈ 5.29 µM)	2 (≈ 5.29 µM)	1 (≈ 2.64 µM)	≤ 1	> 64	>64	1 (≈ 2.64 µM)	≤ 1
COC(=O)CCCCn1ncc2nc(NCc3ccc(Cl)c(Cl)c3)[nH]c(=O)c21 [Compound 218, methyl 5-[5-[(3,4-dichlorophenyl)methylamino]-7-oxo-6H-pyrazolo[4,3-d]pyrimidin-1-yl]pentanoate]	0.5 (≈ 1.18 µM)	2 (≈ 4.71 µM)	2 (≈ 4.71 µM)	1 (≈ 2.36 µM)	1 (≈ 2.36 µM)	≤ 1	> 64	>64	1 (≈ 2.36 µM)	≤ 1
Cl.O=c1[nH]c(NCc2ccc(Cl)c(Cl)c2)nc2cnn(C3CCN(C4CCOCC4)CC3)c12 [Compound 242, 5-((3,4-dichlorobenzyl)amino)-1-(1-(tetrahydro-2H-pyran-4-yl)piperidin-4-yl)-1H-pyrazolo[4,3-d]pyrimidin-7(6H)-one hydrochloride]	2	2	4	8	2		> 64	32	4	
O=C(O)CCC(=O)N1CCC(n2ncc3nc(NCc4ccc(Cl)c(Cl)c4)[nH]c(=O)c32)CC1 [Compound 273, 4-(4-(5-((3,4-dichlorobenzyl)amino)-7-oxo-6,7-dihydro-1H-pyrazolo[4,3-d]pyrimidin-1-yl)piperidin-1-yl)-4-oxobutanoic Acid]	> 64	32 (≈ 64.9 µM)	64 (≈ 130 µM)	> 64	32 (≈ 64.9 µM)		> 64	>64	> 64	
